Reference: ChEMBL document CHEMBL3393053, “Synthesis and biological evaluation of isoindoloisoquinolinone, pyroloisoquinolinone and benzoquinazolinone derivatives as poly(ADP-ribose) polymerase-1 inhibitors” (Bioorg Med Chem, 2015)
pIC50: −log10 of the molar value.

Assays:
[1] = (§1) Antioxidant activity against H2O2-induced oxidative stress in chicken RBC assessed as lipid peroxidation level by measuring malondialdehyde formation per mg protein pre-incubated at 75 uM followed by H2O2 addition by UV spectroscopy (reference value: 84.32 +/- 12.04 nmol malondialdehyde formed/mg protein); format: functional, Gallus gallus, Erythrocyte
[2] = as §1, with “50” for “75”; format: functional, Gallus gallus, Erythrocyte
[3] = system: Erythrocyte; test: Cytoprotective activity against H2O2-induced genomic DNA damage in chicken RBC assessed as DNA level in comet tail region pre-incubated at 100 uM followed by H2O2 addition by single cell alkaline gel electrophoresis and fluorescent microscopy based comet assay (reference value: 45.78 +/- 3.24%); format: functional, Gallus gallus
[4] = Antioxidant activity against H2O2-induced oxidative stress in chicken RBC assessed as catalase activity by measuring H2O2 utilization per mg protein pre-incubated at 50 uM followed by H2O2 addition by UV spectroscopy (reference value: 15.97 +/- 2.12 nmol of H2O2 utilized/min/mg of protein); format: functional, Gallus gallus, Erythrocyte
[5] = as §1, with “100” for “75”; format: functional, Gallus gallus, Erythrocyte
[6] = (§2) Antioxidant activity against H2O2-induced oxidative stress in chicken RBC assessed as superoxide dismutase activity by measuring pyrogallol oxidization per mg protein pre-incubated at 75 uM followed by H2O2 addition by UV spectroscopy (reference value: 11.32 +/- 1.96 pyrogallol oxidized/min/mg of protein); format: functional, Gallus gallus, Erythrocyte
[7] = Antioxidant activity against H2O2-induced oxidative stress in chicken RBC assessed as catalase activity by measuring H2O2 utilization per mg protein pre-incubated at 100 uM followed by H2O2 addition by UV spectroscopy (reference value: 15.97 +/- 2.12 nmol of H2O2 utilized/min/mg of protein); format: functional, Gallus gallus, Erythrocyte
[8] = as §2, with “50” for “75”; format: functional, Gallus gallus, Erythrocyte
[9] = as §2, with “25” for “75”; format: functional, Gallus gallus, Erythrocyte
[10] = as §1, with “25” for “75”; format: functional, Gallus gallus, Erythrocyte
[11] = Cytoprotective activity against H2O2-induced cytotoxicity in chicken RBC assessed as cell viability pre-incubated at 100 uM followed by H2O2 addition by acridine orange and ethidium bromide staining method (reference value: 41 +/- 2.08%); format: functional; conditions: Gallus gallus, Erythrocyte; read-out: Activity
[12] = system: Erythrocyte; test: Cytoprotective activity against H2O2-induced genomic DNA damage in chicken RBC assessed as DNA level in comet head region pre-incubated at 100 uM followed by H2O2 addition by single cell alkaline gel electrophoresis and fluorescent microscopy based comet assay (reference value: 52.23 +/- 3.98%); format: functional, Gallus gallus
[13] = as §2, with “100” for “75”; format: functional, Gallus gallus, Erythrocyte
[14] = Antioxidant activity against H2O2-induced oxidative stress in chicken RBC assessed as catalase activity by measuring H2O2 utilization per mg protein pre-incubated at 25 uM followed by H2O2 addition by UV spectroscopy (reference value: 15.97 +/- 2.12 nmol of H2O2 utilized/min/mg of protein); format: functional, Gallus gallus, Erythrocyte
[15] = Toxicity against chicken RBC assessed as effect on cell viability at 25 to 100 uM by acridine orange and ethidium bromide staining method; format: cell-based, Gallus gallus; conditions: erythrocyte
[16] = Antioxidant activity against H2O2-induced oxidative stress in chicken RBC assessed as catalase activity by measuring H2O2 utilization per mg protein pre-incubated at 75 uM followed by H2O2 addition by UV spectroscopy (reference value: 15.97 +/- 2.12 nmol of H2O2 utilized/min/mg of protein); format: functional, Gallus gallus, Erythrocyte
[17] = molecular target: Poly [ADP-ribose] polymerase 1 (Homo sapiens, UniProt P09874); test: Inhibition of PARP1 (unknown origin) in presence of NAD+ by homogenous fluorescence plate assay
Chain of Poly [ADP-ribose] polymerase 1 (P09874 whole entry): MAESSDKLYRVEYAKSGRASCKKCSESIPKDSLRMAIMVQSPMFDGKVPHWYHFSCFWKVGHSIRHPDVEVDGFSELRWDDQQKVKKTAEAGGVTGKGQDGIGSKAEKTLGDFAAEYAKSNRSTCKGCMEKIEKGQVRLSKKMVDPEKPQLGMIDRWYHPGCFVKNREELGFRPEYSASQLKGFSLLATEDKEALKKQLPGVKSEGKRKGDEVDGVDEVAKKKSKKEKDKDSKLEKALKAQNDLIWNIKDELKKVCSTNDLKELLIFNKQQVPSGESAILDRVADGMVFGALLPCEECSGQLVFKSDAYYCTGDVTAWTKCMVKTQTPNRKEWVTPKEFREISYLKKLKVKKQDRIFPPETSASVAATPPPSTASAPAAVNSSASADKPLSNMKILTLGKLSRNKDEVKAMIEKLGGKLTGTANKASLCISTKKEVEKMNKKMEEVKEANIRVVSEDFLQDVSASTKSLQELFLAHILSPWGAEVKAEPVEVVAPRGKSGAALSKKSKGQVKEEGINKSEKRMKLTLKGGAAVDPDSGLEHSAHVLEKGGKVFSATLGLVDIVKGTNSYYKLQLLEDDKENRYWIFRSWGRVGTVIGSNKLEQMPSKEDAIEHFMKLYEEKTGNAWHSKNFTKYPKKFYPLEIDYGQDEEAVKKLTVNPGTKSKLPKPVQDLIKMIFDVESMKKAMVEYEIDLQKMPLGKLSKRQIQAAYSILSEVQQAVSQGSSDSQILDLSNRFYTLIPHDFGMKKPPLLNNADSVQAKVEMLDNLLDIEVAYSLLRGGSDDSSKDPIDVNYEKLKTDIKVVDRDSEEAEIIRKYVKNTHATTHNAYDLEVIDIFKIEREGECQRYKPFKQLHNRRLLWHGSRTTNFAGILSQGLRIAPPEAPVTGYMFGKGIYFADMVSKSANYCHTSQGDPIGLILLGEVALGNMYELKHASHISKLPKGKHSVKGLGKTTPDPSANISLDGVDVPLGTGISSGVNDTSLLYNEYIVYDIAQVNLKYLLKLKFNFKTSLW

SMILES	Activity [1]	Activity [2]	Activity [3]	Activity [4]	Activity [5]	Activity [6]	Activity [7]	Activity [8]	Activity [9]	Activity [10]	viability at 100 µM [11]	Activity [12]	Activity [13]	Activity [14]	Activity [15]	Activity [16]	pIC50 [17]
COc1ccc2c(c1OC)CCN1C(=O)c3ccccc3C21O (stereo unspecified)	41.21 nmol/mg protein	46.37 nmol/mg protein	42.97%	16.25 nmol/min/mg	48.32 nmol/mg protein	15.54 µmol/min	16.37 nmol/min/mg protein	15.96 µmol/min	13.19 µmol/min	53.65 nmol/mg protein	65.6%	56.64%	18.13 µmol/min	15.31 nmol/min/mg	Non-toxic	16.46 nmol/min/mg	
COc1ccc2c(c1OC)CCN1C(=O)CCCC21 (stereo unspecified)	48.23 nmol/mg protein	54.23 nmol/mg protein	9.75%	25.95 nmol/min/mg	49.54 nmol/mg protein	11.95 µmol/min	31.43 nmol/min/mg protein	11.48 µmol/min	11.76 µmol/min	61.45 nmol/mg protein	86.6%	73.84%	12.98 µmol/min	17.36 nmol/min/mg	Non-toxic	28.47 nmol/min/mg	
Cc1ccc2c(c1)CCN1C(=O)c3ccccc3C21O (stereo unspecified)	26.52 nmol/mg protein	43.76 nmol/mg protein	11.44%	50.35 nmol/min/mg	16.95 nmol/mg protein	15.08 µmol/min	65.35 nmol/min/mg protein	14.56 µmol/min	11.51 µmol/min	53.66 nmol/mg protein	82.3%	87.56%	18.6 µmol/min	31.71 nmol/min/mg	Non-toxic	54.56 nmol/min/mg	
COc1ccc(OC)c2c1CCN1C(=O)c3ccccc3C21O (stereo unspecified)	14.24 nmol/mg protein	28.21 nmol/mg protein	8.55%	31.76 nmol/min/mg	20.14 nmol/mg protein	23.76 µmol/min	68.46 nmol/min/mg protein	19.24 µmol/min	16.32 µmol/min	36.23 nmol/mg protein	72%	90.45%	27.76 µmol/min	23.65 nmol/min/mg	Non-toxic	47.53 nmol/min/mg	
COc1cc2c(cc1O)C1(O)c3ccccc3C(=O)N1CC2 (stereo unspecified)	26.35 nmol/mg protein	47.15 nmol/mg protein	7.34%	51.49 nmol/min/mg	15.02 nmol/mg protein	28.863 µmol/min	70.66 nmol/min/mg protein	21.63 µmol/min	18.616 µmol/min	52.71 nmol/mg protein	93.6%	92.3%	30.94 µmol/min	29.52 nmol/min/mg	Non-toxic	62.57 nmol/min/mg	
COc1cc2c(cc1OC)C1(O)C3C4c5ccccc5C(c5ccccc54)C3C(=O)N1CC2 (stereo unspecified)	24.44 nmol/mg protein	35.6 nmol/mg protein	16.55%	55.89 nmol/min/mg	18.1 nmol/mg protein	23.58 µmol/min	67.91 nmol/min/mg protein	19.63 µmol/min	15.86 µmol/min	51.48 nmol/mg protein	87.3%	82.45%	27.87 µmol/min	46.11 nmol/min/mg	Non-toxic	65.12 nmol/min/mg	
O=C1NCCc2c(OCCCCN3CCCCC3)cccc21																	7.27
O=C1c2ccccc2C2(O)c3ccc(Br)cc3CCN12 (stereo unspecified)	34.52 nmol/mg protein	54.24 nmol/mg protein	4.55%	51.14 nmol/min/mg	16.75 nmol/mg protein	17.51 µmol/min	65.007 nmol/min/mg protein	14.05 µmol/min	12.8667 µmol/min	70.74 nmol/mg protein	75.3%	94.32%	21.58 µmol/min	36.597 nmol/min/mg	Non-toxic	56.05 nmol/min/mg	
COc1cc2c(cc1OC)C1(O)c3ccccc3C(=O)N1CC2 (stereo unspecified)	16.54 nmol/mg protein	29.27 nmol/mg protein	34.44%	43.65 nmol/min/mg	18.32 nmol/mg protein	23.98 µmol/min	64.87 nmol/min/mg protein	19.35 µmol/min	17.34 µmol/min	38.46 nmol/mg protein	79.3%	65.56%	28.45 µmol/min	26.54 nmol/min/mg	Non-toxic	48.43 nmol/min/mg	
COc1cc2c(c(OC)c1)C1CCC(=O)N1CC2 (stereo unspecified)	16.87 nmol/mg protein	19.12 nmol/mg protein	45.8%	46.35 nmol/min/mg	16.14 nmol/mg protein	24.35 µmol/min	70.43 nmol/min/mg protein	19.43 µmol/min	17.23 µmol/min	28.38 nmol/mg protein	68.3%	54.2%	29.34 µmol/min	38.65 nmol/min/mg	Non-toxic	58.28 nmol/min/mg	
COc1ccc2c(c1)CCN1C(=O)c3ccccc3C21O (stereo unspecified)	48.12 nmol/mg protein	56.32 nmol/mg protein	41.96%	16.25 nmol/min/mg	42.14 nmol/mg protein	11.48 µmol/min	16.37 nmol/min/mg protein	11.87 µmol/min	12.65 µmol/min	62.98 nmol/mg protein	53.6%	57.29%	11.37 µmol/min	15.31 nmol/min/mg	Non-toxic	16.46 nmol/min/mg	
